11 compounds from ChEMBL document CHEMBL1201862, “PubChem BioAssay data set” (2004) can be followed below.

Among the test systems are BT-549; EKVX; HCC 2998; HCT-15; HT-29; IGROV-1; MCF7; MDA-MB-435; MOLT-4; Malme-3M; OVCAR-3; OVCAR-8; PC-3; RXF 393; SF-268; SF-295; SF-539; SK-MEL-5; UACC-257; HL-60.
What all share (test): inhibition of tumour cell growth, NCI panel, 48 h

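Dose response: 5 concentrations. Exposure: 48 h. Format: 96-well plates. Endpoint: linear interpolation; highest concentration if not reached. Here, GI50 denotes the concentration required for 50% inhibition of growth.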 The source made the active and inactive calls. Cut-off read from the data, not from the text of the source: active = GI50 up to about 1.1 µM and inactive = higher. Peptide text beside a SMILES is read from it. * marks the point of attachment. Boc = CC(C)(C)OC(=O)*; OBn = c1ccc(CO*)cc1; Bn = c1ccc(C*)cc1 Where only a bound is given, the exact number is not on record here.

Turning to `CC1(C)SC2C(C(=O)O)N=C(Cc3ccccc3)N2C1C(=O)O` (centres undefined), the GI50 was 31 µM (inactive) in the assay on BT-549; 3.97 µM (inactive) in the assay with EKVX; 25.3 µM (inactive) with HCC 2998; 81.5 µM in the assay on HCT-15; 13.6 µM (inactive) in the assay on HT-29; > 100 µM (inactive) in the assay on IGROV-1. The GI50 was 34.2 µM (inactive) with MCF7; 40.7 µM (inactive) in the assay with MDA-MB-435; > 100 µM (inactive) with MOLT-4; 62.2 µM (inactive) in the assay with Malme-3M; 49 µM (inactive) in the assay with OVCAR-3; 37.3 µM (inactive) in the assay on OVCAR-8. Besides, the GI50 in the assay on PC-3 is 42.7 µM (inactive); in the assay with RXF 393, 34.6 µM (inactive); with SF-268, 30.1 µM (inactive); in the assay with SF-295, 31.7 µM (inactive); with SF-539, 30.8 µM (inactive); in the assay with SK-MEL-5 it was > 100 µM (inactive). Besides, in the assay on UACC-257, the GI50 was 21.9 µM (inactive).

Turning to `CCCC(=O)NC(NC1CCCCC1)(C(=O)OCC)C(F)(F)F` (centres undefined), the GI50 with EKVX is > 100 µM (inactive); with HCC 2998, > 100 µM (inactive); in the assay with HCT-15, over 100 µM; with HL-60, > 100 µM (inactive); with HT-29 it was > 100 µM (inactive); with IGROV-1, > 100 µM (inactive). Further, the GI50 with MCF7, in the assay on MDA-MB-435, in the assay on MOLT-4, with Malme-3M, with OVCAR-3 and in the assay on OVCAR-8 was > 100 µM (inactive) each time. The GI50 with PC-3, in the assay on RXF 393, in the assay with SF-268, in the assay on SF-295, with SF-539 and in the assay on SK-MEL-5 was > 100 µM (inactive) throughout. Besides, in the assay with UACC-257, the GI50 was > 100 µM (inactive).

In the case of `CN1CCN(Cc2nc3c(s2)CCc2sccc2-3)CC1`, the GI50 was > 100 µM (inactive) in the assay with BT-549; > 100 µM (inactive) with EKVX; 51.4 µM (inactive) in the assay with HCC 2998; over 100 µM with HCT-15; 32.7 µM (inactive) in the assay with HT-29; > 100 µM (inactive) in the assay on IGROV-1. Besides, the GI50 with MCF7 is 79.8 µM (inactive); in the assay with MDA-MB-435 it was 54.2 µM (inactive); in the assay with MOLT-4 it was 77.8 µM (inactive); in the assay on Malme-3M it was 89.3 µM (inactive); with OVCAR-3, > 100 µM (inactive); with OVCAR-8 it was 94.6 µM (inactive). The GI50 in the assay on PC-3 was 63.8 µM (inactive); with RXF 393 it was 75.5 µM (inactive); in the assay on SF-268 it was 82.6 µM (inactive); in the assay with SF-295, 73.1 µM (inactive); in the assay with SK-MEL-5, 36.4 µM (inactive); with UACC-257, 79.3 µM (inactive).

In the case of `O=C(NCCC1([N+](=O)[O-])CCN(C(=O)c2ccccc2)CC1)c1ccccc1`, the GI50 was > 100 µM (inactive) with BT-549; > 100 µM (inactive) in the assay on EKVX; over 100 µM in the assay on HCT-15; > 100 µM (inactive) in the assay with HL-60; 45.6 µM (inactive) in the assay on HT-29; > 100 µM (inactive) with IGROV-1. The GI50 was 26.7 µM (inactive) in the assay on MDA-MB-435; > 100 µM (inactive) in the assay with MOLT-4; 56.5 µM (inactive) in the assay on Malme-3M; > 100 µM (inactive) in the assay with OVCAR-8; > 100 µM (inactive) in the assay with PC-3; 67 µM (inactive) in the assay on RXF 393. The GI50 in the assay with SF-268 was > 100 µM (inactive); in the assay on SF-295 it was > 100 µM (inactive); with SF-539, > 100 µM (inactive); with SK-MEL-5 it was 37.2 µM (inactive); in the assay with UACC-257 it was 24.7 µM (inactive).

For the compound `Cc1nc2ccc(Cl)cc2c(Cl)c1CCCl`, the GI50 is 51.3 µM (inactive) in the assay with EKVX; 30.7 µM (inactive) with HCC 2998; 43.1 µM in the assay with HCT-15; 46.6 µM (inactive) in the assay on HL-60; 27.2 µM (inactive) with HT-29; 72.6 µM (inactive) in the assay on IGROV-1. In addition, the GI50 with MCF7 is 30.6 µM (inactive); with MDA-MB-435, 8.36 µM (inactive); with MOLT-4 it was 15.6 µM (inactive); in the assay with Malme-3M it was > 100 µM (inactive); in the assay on OVCAR-3, 48 µM (inactive); in the assay on OVCAR-8 it was 62.4 µM (inactive). For the same compound, the GI50 with PC-3 is 80.7 µM (inactive); in the assay with RXF 393, > 100 µM (inactive); in the assay with SF-268, > 100 µM (inactive); in the assay on SF-295 it was 48.2 µM (inactive); with SF-539, > 100 µM (inactive); in the assay with SK-MEL-5, 25.3 µM (inactive). Also, the GI50 in the assay with UACC-257 is 74 µM (inactive).

With `CN(C)CCCNC1=C(Cl)C(=O)c2c(O)ccc(O)c2C1=O`, the GI50 in the assay with BT-549 is 1.6 µM (inactive); with EKVX, 3.37 µM (inactive); in the assay with HCC 2998, 1.79 µM (inactive); with HCT-15, 1.8 µM; with HT-29, 2.17 µM (inactive); in the assay with IGROV-1, 1.77 µM (inactive). For the same compound, the GI50 in the assay with MCF7 was 1.55 µM (inactive); in the assay with MDA-MB-435, 1.6 µM (inactive); in the assay with MOLT-4, 2.58 µM (inactive); in the assay with Malme-3M, 1.84 µM (inactive); in the assay with OVCAR-3, 2.24 µM (inactive); with OVCAR-8, 3.27 µM (inactive). For the same compound, the GI50 is 2.54 µM (inactive) with PC-3; 1 µM (active) with SF-268; 1.73 µM (inactive) in the assay with SF-295; 1.69 µM (inactive) in the assay with SF-539; 1.5 µM (inactive) in the assay with SK-MEL-5; 1.95 µM (inactive) in the assay on UACC-257.

`Cc1ccc(S(=O)(=O)NC(=O)Nc2cc(Cl)c(S(N)(=O)=O)cc2S(N)(=O)=O)cc1`: the GI50 with BT-549 was > 100 µM (inactive); in the assay with EKVX, > 100 µM (inactive); in the assay on HCT-15 it was over 100 µM; in the assay with HL-60 it was > 100 µM (inactive); with HT-29, > 100 µM (inactive); with IGROV-1, > 100 µM (inactive). For the same compound, the GI50 in the assay with MCF7, with MDA-MB-435, in the assay on MOLT-4, in the assay on Malme-3M, in the assay with OVCAR-3 and with OVCAR-8 was > 100 µM (inactive) throughout. Further, the GI50 in the assay on RXF 393 is > 100 µM (inactive); in the assay on SF-268 it was > 100 µM (inactive); in the assay with SF-295, > 100 µM (inactive); with SF-539 it was 58.3 µM (inactive); in the assay on SK-MEL-5, > 100 µM (inactive); in the assay with UACC-257, > 100 µM (inactive).

For `C=C[C@@]1(C)CC(=O)[C@]2(O)[C@@]3(C)[C@@H](OC(C)=O)CCC(C)(C)[C@@H]3[C@H](OC(C)=O)[C@H](OC(C)=O)[C@@]2(C)O1`, the GI50 in the assay with BT-549 is > 100 µM (inactive); in the assay on EKVX it was > 100 µM (inactive); in the assay on HCC 2998 it was > 100 µM (inactive); with HCT-15 it was over 100 µM; in the assay on HT-29, > 100 µM (inactive); in the assay on IGROV-1, 56.6 µM (inactive). Moreover, the GI50 was > 100 µM (inactive) in the assay on MCF7; > 100 µM (inactive) with MDA-MB-435; 51.4 µM (inactive) in the assay with MOLT-4; > 100 µM (inactive) with OVCAR-3; > 100 µM (inactive) in the assay with OVCAR-8; > 100 µM (inactive) with PC-3. Further, the GI50 in the assay on SF-295, in the assay with SF-539 and in the assay on UACC-257 was > 100 µM (inactive) each time.

For the compound `C#Cc1nc(N)c2ncn(C3OC(COS(N)(=O)=O)C(O)C3O)c2n1` (centres undefined), the GI50 in the assay with BT-549 was < 0.01 µM (active); in the assay on EKVX it was 0.262 µM (active); in the assay on HCC 2998, < 0.01 µM (active); in the assay with HCT-15, under 0.0214 µM; with HT-29, 0.0233 µM (active); with IGROV-1 it was 0.0291 µM (active). Further, the GI50 was 0.0124 µM (active) with MCF7; 0.016 µM (active) with MDA-MB-435; < 0.0181 µM (active) in the assay with MOLT-4; < 0.0194 µM (active) in the assay with OVCAR-3; 0.0188 µM (active) in the assay with OVCAR-8; < 0.0204 µM (active) with PC-3. Besides, the GI50 was < 0.0179 µM (active) in the assay on RXF 393; 0.018 µM (active) in the assay on SF-268; 0.757 µM (active) with SF-295; 0.0362 µM (active) in the assay with SF-539; 0.0361 µM (active) with SK-MEL-5; < 0.0318 µM (active) in the assay with UACC-257.

Regarding `O=C(O)c1cc(C(=O)C(=O)c2cc(C(=O)O)c(O)c3ccccc23)c2ccccc2c1O`, the GI50 in the assay with BT-549 is > 100 µM (inactive); with EKVX, > 100 µM (inactive); with HCC 2998, > 100 µM (inactive); in the assay with HCT-15 it was over 100 µM; in the assay on HT-29, > 100 µM (inactive); in the assay on IGROV-1, > 100 µM (inactive). For the same compound, the GI50 in the assay on MCF7, in the assay on MDA-MB-435, with Malme-3M, in the assay on OVCAR-3, in the assay with OVCAR-8 and with PC-3 was > 100 µM (inactive) each time. Besides, the GI50 in the assay with RXF 393, in the assay on SF-268, in the assay with SF-295, in the assay with SF-539, in the assay on SK-MEL-5 and with UACC-257 was > 100 µM (inactive) throughout.

Turning to `CC(C)CC(NC(=O)C(CCC(=O)OCc1ccccc1)NC(=O)OC(C)(C)C)C(=O)NC(COCc1ccccc1)C(=O)NC(Cc1ccccc1)C(=O)O` (centres undefined) (Boc-E(OBn)LS(Bn)F-OH; configuration not given here), the GI50 was > 100 µM (inactive) with BT-549; > 100 µM (inactive) in the assay on EKVX; > 100 µM (inactive) in the assay on HCC 2998; over 100 µM in the assay on HCT-15; > 100 µM (inactive) in the assay with HL-60; > 100 µM (inactive) in the assay with HT-29. Further, the GI50 with IGROV-1 was > 100 µM (inactive); in the assay on MCF7 it was > 100 µM (inactive); in the assay with MOLT-4, > 100 µM (inactive); in the assay with Malme-3M it was 46.9 µM (inactive); in the assay with OVCAR-8, > 100 µM (inactive); with PC-3, > 100 µM (inactive). For the same compound, the GI50 in the assay with RXF 393, with SK-MEL-5 and with UACC-257 was > 100 µM (inactive) throughout.
